# According to US7037931B2, “CCK-1 receptor modulators” (Janssen Pharmaceutica N.V., priority 2002, dated 2006):
row,melting point [°C],SMILES
1,280 to 285,COc1ccc(-n2nc(C[C@H](C(=O)[O-])c3cccc(C)c3)cc2-c2ccc(Cl)c(Cl)c2)cc1.[Na+] (stereo in doubt) [Example 505]
2,295.5 to 297.5,"COc1ccc(-n2nc(C[C@H](C(=O)[O-])c3cccc(C)c3)cc2-c2ccc(Cl)c(Cl)c2)cc1.[Na+] [Example 1, (S)-Sodium; 3-[5-(3,4-dichloro-phenyl)-1-(4-methoxy-phenyl)-1H-pyrazol-3-yl]-2-m-tolyl-propionate]"
3,39.5 to 43.2,"CON(C)C(=O)c1ccc(Cl)c(Cl)c1 [Example 511, 3,4-Dichloro-N-methoxy-N-methyl-benzamide]"
